Among the data in ChEMBL document CHEMBL1124359, “Quantitative structure-activity relationships in dihydropteroate synthase inhibition by multisubstituted sulfones. Design and synthesis of some new derivatives with improved potency” (J Med Chem, 1989) are apE and EII50 values, retold here.

The test system of experiment [1] is Escherichia coli. The experiment in a line: Inhibitory activity (apE=log(1/EII50)) against dihydropteroate synthase from Escherichia coli.
In experiment [2] the test system is Escherichia coli. The experiment in a line: Inhibitory activity (Enzyme inhibition index) against dihydropteroate synthase from Escherichia coli.

Values joined by “and” are separate entries in the source; they are usually repeats but may differ in a detail not shown here. Equal entries are not always repeated.

`Nc1ccc(S(=O)(=O)c2ccc(O)cc2O)cc1`: the apE in the experiment with Escherichia coli [1] is 0.29 and 0.15. Moreover, the EII50 in the experiment with Escherichia coli [2] is 0.51 and 0.71. As for `Cc1cc(O)ccc1S(=O)(=O)c1ccc(N)cc1`, in the experiment with Escherichia coli [1], the apE was 0.66 and 0.47. Further, the EII50 in the experiment on Escherichia coli [2] was 0.23 and 0.34. In the case of `Nc1ccc(S(=O)(=O)c2ccc(N)cc2N)cc1`, the apE in the experiment with Escherichia coli [1] was -0.2. Moreover, in the experiment with Escherichia coli [2], the EII50 was 1.59. `COc1cc(C)cc(C)c1S(=O)(=O)c1ccc(N)cc1` gave an apE with Escherichia coli [1] of -0.48. In the experiment with Escherichia coli [2], this compound returned an EII50 of 3.02.

With `Nc1ccc(S(=O)(=O)c2ccc(O)cc2Cl)cc1`, the apE with Escherichia coli [1] is 0.59 and 0.58. Besides, the EII50 in the experiment on Escherichia coli [2] turned out to be 0.26. In the case of `Nc1ccc(S(=O)(=O)c2c(Cl)cc(Cl)cc2Cl)cc1`, the apE in the experiment with Escherichia coli [1] is -0.52. In the experiment with Escherichia coli [2], the EII50 turned out to be 3.31. For `Nc1ccc(S(=O)(=O)c2ccc(N)cc2)cc1` the same measures were -0.42 and 2.64. The like results for `Nc1ccc(S(=O)(=O)c2ccc(Cl)cc2Cl)cc1` were, in that order, -0.35 and 2.24. The compound `Nc1ccc(S(=O)(=O)c2ccc([N+](=O)[O-])cc2[N+](=O)[O-])cc1` yielded an apE in the experiment on Escherichia coli [1] of -1.56. In addition, in the experiment with Escherichia coli [2], the EII50 came to 36.3.

Compound `Cc1ccc(S(=O)(=O)c2ccc(N)cc2)c(C)c1` yielded an apE in the experiment on Escherichia coli [1] of -0.28. In addition, the EII50 in the experiment with Escherichia coli [2] is 1.89.

As for `Nc1ccc(S(=O)(=O)c2c(O)cc(O)cc2O)cc1`, in the experiment with Escherichia coli [2], the EII50 was 1.91 and 1.46. In turn, `COc1cc(C)c(S(=O)(=O)c2ccc(N)cc2)c(C)c1` returned an apE in the experiment on Escherichia coli [1] of -0.25. Moreover, the EII50 in the experiment on Escherichia coli [2] is 1.77. As to `COc1ccc(S(=O)(=O)c2ccc(N)cc2)c(C)c1`, the apE in the experiment on Escherichia coli [1] is -0.25. The EII50 with Escherichia coli [2] stood at 1.77.

With `Cc1cc(C)c(S(=O)(=O)c2ccc(N)cc2)c(C)c1`, the apE with Escherichia coli [1] is -0.23. The compound further gave an EII50 in the experiment with Escherichia coli [2] of 1.69.

For the compound `Cc1cc(O)cc(C)c1S(=O)(=O)c1ccc(N)cc1`, the apE with Escherichia coli [1] was 0.29 and 0.59. Also, in the experiment with Escherichia coli [2], the EII50 was 0.51 and 0.25. With `COc1cc(OC)c(S(=O)(=O)c2ccc(N)cc2)c(OC)c1`, in the experiment on Escherichia coli [1], the apE was -1.11. Moreover, in the experiment on Escherichia coli [2], the EII50 was found to be 12.9. For `COc1ccc(S(=O)(=O)c2ccc(N)cc2)c(OC)c1` the same measures were -0.51 and 3.21.
